We go through 18 compounds from US10259810B2, “N-sulfonylated pyrazolo[3,4-b]pyridin-6-carboxamides and method of use” (AbbVie S.à.r.l., priority 2015, dated 2019).

Assay [1] concerns the target T1, ΔF508-CFTR (Homo sapiens, UniProt P13569, DEL508-508).
T1 construct: host or cells: CFBE41o-, doxycycline-inducible
Briefly: CFTR cell surface levels using HRP-tagged ΔF508-CFTR expressing CFBE cells, in the presence of a co-corrector. Format: cell-based. Particulars: HRP-tagged ΔF508-CFTR CFBE cells, in the presence of 3 μM co-corrector; for EC50: read-out: EC50. The essentials: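 Chemiluminescent read-out of surface HRP (15 min, dark) after PBS washes. Activity is normalized as 100×(sample−DMSO)/(3 μM co-corrector alone−DMSO).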

Assay [2] deals with T1, ΔF508-CFTR. In words: CFTR cell surface levels using HRP-tagged ΔF508-CFTR expressing CFBE cells, intrinsic corrector capacity. Also on record: % Activation: concentration or dose not given beside the values. The assay is classed as cell-based. Particulars: HRP-tagged ΔF508-CFTR expressing CFBE41o- cells, compound alone (intrinsic corrector capacity), 20 hours at 33° C.; for EC50: read-out: EC50. The essentials:
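Read-out: chemiluminescent HRP activity of ECL4-HRP-tagged ΔF508-CFTR at the cell surface, 15 min substrate in dark. Normalized as 100×(sample−DMSO)/(positive control−DMSO).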

T1 sequence (P13569 with tags, fused parts or gaps DEL508-508): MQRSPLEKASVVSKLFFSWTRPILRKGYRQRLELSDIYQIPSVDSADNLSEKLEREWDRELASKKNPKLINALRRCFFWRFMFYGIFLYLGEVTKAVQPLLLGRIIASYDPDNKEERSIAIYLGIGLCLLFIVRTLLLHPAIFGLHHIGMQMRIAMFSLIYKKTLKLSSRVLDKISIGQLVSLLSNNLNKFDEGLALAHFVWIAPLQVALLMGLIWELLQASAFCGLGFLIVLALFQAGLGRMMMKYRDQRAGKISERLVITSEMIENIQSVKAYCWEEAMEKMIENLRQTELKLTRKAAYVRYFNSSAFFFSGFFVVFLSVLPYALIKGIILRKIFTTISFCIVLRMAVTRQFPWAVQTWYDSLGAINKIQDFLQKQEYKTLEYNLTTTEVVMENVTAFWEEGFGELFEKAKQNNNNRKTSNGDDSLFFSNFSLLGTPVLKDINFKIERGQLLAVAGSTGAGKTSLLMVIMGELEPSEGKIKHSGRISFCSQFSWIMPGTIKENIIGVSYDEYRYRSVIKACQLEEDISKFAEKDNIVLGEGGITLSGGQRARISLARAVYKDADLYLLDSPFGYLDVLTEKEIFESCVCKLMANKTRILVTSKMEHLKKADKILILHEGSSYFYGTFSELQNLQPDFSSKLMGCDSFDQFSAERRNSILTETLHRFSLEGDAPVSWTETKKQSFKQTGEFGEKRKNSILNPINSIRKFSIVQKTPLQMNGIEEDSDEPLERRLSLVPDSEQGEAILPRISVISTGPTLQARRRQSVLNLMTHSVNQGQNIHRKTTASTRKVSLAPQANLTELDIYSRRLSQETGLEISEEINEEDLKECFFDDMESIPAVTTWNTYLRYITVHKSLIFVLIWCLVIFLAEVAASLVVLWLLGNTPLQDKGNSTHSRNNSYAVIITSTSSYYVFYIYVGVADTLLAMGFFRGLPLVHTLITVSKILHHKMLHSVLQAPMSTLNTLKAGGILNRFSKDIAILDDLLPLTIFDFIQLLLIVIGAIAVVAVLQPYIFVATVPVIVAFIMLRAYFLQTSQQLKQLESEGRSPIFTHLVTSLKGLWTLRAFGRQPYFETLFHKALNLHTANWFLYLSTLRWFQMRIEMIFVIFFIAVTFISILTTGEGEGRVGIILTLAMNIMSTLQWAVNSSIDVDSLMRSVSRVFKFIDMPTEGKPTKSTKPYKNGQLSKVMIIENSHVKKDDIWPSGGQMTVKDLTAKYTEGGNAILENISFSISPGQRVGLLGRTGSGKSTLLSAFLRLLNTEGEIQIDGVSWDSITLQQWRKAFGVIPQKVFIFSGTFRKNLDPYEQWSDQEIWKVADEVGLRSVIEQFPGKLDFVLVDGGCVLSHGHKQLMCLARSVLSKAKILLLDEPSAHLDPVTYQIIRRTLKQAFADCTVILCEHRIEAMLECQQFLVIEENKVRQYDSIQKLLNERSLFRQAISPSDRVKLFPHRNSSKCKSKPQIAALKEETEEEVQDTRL

By EC50 is commonly meant the concentration needed to bring the measured effect to its halfway point. With `COCC1CCN(c2cc(C(=O)NS(=O)(=O)N(C)C)nc3c2c(C2CCC2)nn3-c2ccnc(C3CCOCC3)c2)CC1` [Compound 531, 3-cyclobutyl-N-(dimethylsulfamoyl)-4-[4-(methoxymethyl)piperidin-1-yl]-1-[2-(oxan-4-yl)pyridin-4-yl]-1H-pyrazolo[3,4-b]pyridine-6-carboxamide], on ΔF508-CFTR [1], the “% Activation” value is 349.65% and the EC50 is 63.5 nM. At ΔF508-CFTR [2], the “% Activation” value is 182.8% and the EC50 came out at 234 nM.
`CN(C)S(=O)(=O)NC(=O)c1cc(N2CCC(N3CC4CC3CO4)CC2)c2c(C3CCC3)nn(-c3ccc(F)cc3)c2n1` (stereo not drawn) [Compound 532, 3-cyclobutyl-N-(dimethylsulfamoyl)-1-(4-fluorophenyl)-4-[4-(2-oxa-5-azabicyclo[2.2.1]heptan-5-yl)piperidin-1-yl]-1H-pyrazolo[3,4-b]pyridine-6-carboxamide]: the “% Activation” value at ΔF508-CFTR [1] is 342.83%; on ΔF508-CFTR [2] it was 151.95%. Further, the EC50 was 473 nM at ΔF508-CFTR [1] and 521 nM at ΔF508-CFTR [2].
With `CN(C)S(=O)(=O)NC(=O)c1cc(N2CCC3(CC2)CC(N2CCOCC2)CO3)c2c(C3CCC3)nn(-c3ccc(F)cc3)c2n1` (stereo not drawn) [Compound 533, 3-cyclobutyl-N-(dimethylsulfamoyl)-1-(4-fluorophenyl)-4-[3-(morpholin-4-yl)-1-oxa-8-azaspiro[4.5]decan-8-yl]-1H-pyrazolo[3,4-b]pyridine-6-carboxamide], the “% Activation” value stood at 322.45% at ΔF508-CFTR [1] and 156.3% on ΔF508-CFTR [2]. Besides, the EC50 on ΔF508-CFTR [1] was 221 nM; on ΔF508-CFTR [2], 222 nM.
As to `CC(C)Oc1nn(C2CCCCC2)c2nc(C(=O)NS(=O)(=O)N(C)C)cc(-c3ccc(N4CCN(C(C)C)CC4)cc3)c12` [Compound 534, 1-cyclohexyl-N-(dimethylsulfamoyl)-3-[(propan-2-yl)oxy]-4-{4-[4-(propan-2-yl)piperazin-1-yl]phenyl}-1H-pyrazolo[3,4-b]pyridine-6-carboxamide], at ΔF508-CFTR [1], the “% Activation” value is 289.35% and the 50% effective concentration (EC50) turned out to be 344 nM. Moreover, at ΔF508-CFTR [2], the “% Activation” value was determined as 105% and the EC50 amounted to 241 nM.
Regarding `CN(C)S(=O)(=O)NC(=O)c1cc(-c2ccc(N3CCN(C4CC4)CC3)nc2)c2c(C3CCC3)nn(C3CCCCC3)c2n1` [Compound 536, 3-cyclobutyl-1-cyclohexyl-4-[6-(4-cyclopropylpiperazin-1-yl)pyridin-3-yl]-N-(dimethylsulfamoyl)-1H-pyrazolo[3,4-b]pyridine-6-carboxamide], on ΔF508-CFTR [1], the “% Activation” value came out at 341.15% and the EC50 was 280 nM. In addition, on ΔF508-CFTR [2], the “% Activation” value was found to be 125.1% and the EC50 was 225 nM.
For `COC1CCN(S(=O)(=O)NC(=O)c2cc(N3CCC(N4CCOCC4)CC3)c3c(C4CCC4)nn(-c4ccc(F)cc4)c3n2)C1` (stereo not drawn) [Compound 538, 3-cyclobutyl-1-(4-fluorophenyl)-N-(3-methoxypyrrolidine-1-sulfonyl)-4-[4-(morpholin-4-yl)piperidin-1-yl]-1H-pyrazolo[3,4-b]pyridine-6-carboxamide] the same measures were 427.95%, 358 nM, 228.9% and 2070 nM.
With `CN(C)S(=O)(=O)NC(=O)c1cc(-c2ccc(N3CCC(C#N)CC3)nc2)c2c(C3CCC3)nn(-c3ccccc3)c2n1` [Compound 539, 4-[6-(4-cyanopiperidin-1-yl)pyridin-3-yl]-3-cyclobutyl-N-(dimethylsulfamoyl)-1-phenyl-1H-pyrazolo[3,4-b]pyridine-6-carboxamide], on ΔF508-CFTR [1], the “% Activation” value was determined as 429.3% and the concentration giving a half-maximal response (EC50) was 38.6 nM. Further, on ΔF508-CFTR [2], the “% Activation” value worked out at 234.5% and the EC50 came out at 71.7 nM.
As for `COCC1CCN(S(=O)(=O)NC(=O)c2cc(N3CCC(N4CCOCC4)CC3)c3c(C4CCC4)nn(-c4ccc(F)cc4)c3n2)CC1` [Compound 540, 3-cyclobutyl-1-(4-fluorophenyl)-N-[4-(methoxymethyl)piperidine-1-sulfonyl]-4-[4-(morpholin-4-yl)piperidin-1-yl]-1H-pyrazolo[3,4-b]pyridine-6-carboxamide], the “% Activation” value at ΔF508-CFTR [1] was determined as 443.3%; on ΔF508-CFTR [2], 248.8%. In addition, the EC50 at ΔF508-CFTR [1] was determined as 103 nM; on ΔF508-CFTR [2], 123 nM.
Consider `CC(C)N1CCN(c2ccc(-c3cc(C(=O)NS(=O)(=O)N(C)C)nc4c3c(C3CCC3)nn4C3CCCCC3)cn2)CC1` [Compound 542, 3-cyclobutyl-1-cyclohexyl-N-(dimethylsulfamoyl)-4-{6-[4-(propan-2-yl)piperazin-1-yl]pyridin-3-yl}-1H-pyrazolo[3,4-b]pyridine-6-carboxamide], for which, at ΔF508-CFTR [1], the “% Activation” value is reported as 320.3% and the 50% effective concentration (EC50) came to 216 nM. At ΔF508-CFTR [2], the “% Activation” value came to 153.2% and the EC50 was determined as 267 nM.
For `CC(c1ccc(-c2cc(C(=O)NS(=O)(=O)N(C)C)nc3c2c(C2CCC2)nn3C2CCCCC2)cc1)N1CCOCC1` (stereo not drawn) [Compound 543, 3-cyclobutyl-1-cyclohexyl-N-(dimethylsulfamoyl)-4-{4-[1-(morpholin-4-yl)ethyl]phenyl}-1H-pyrazolo[3,4-b]pyridine-6-carboxamide] the same measures were 336.1%, 139 nM, 115.7% and 238 nM.
Take `CC(C)Oc1nn(C2CCCCC2)c2nc(C(=O)NS(C)(=O)=O)cc(-c3ccc(C(=O)N4CCC(N(C)C)CC4)cc3)c12` [Compound 544, 1-cyclohexyl-4-{4-[4-(dimethylamino)piperidine-1-carbonyl]phenyl}-N-(methanesulfonyl)-3-[(propan-2-yl)oxy]-1H-pyrazolo[3,4-b]pyridine-6-carboxamide]: the “% Activation” value on ΔF508-CFTR [1] was 344.9%; at ΔF508-CFTR [2], 135.3%. Further, the EC50 at ΔF508-CFTR [1] was determined as 2000 nM; on ΔF508-CFTR [2] it was 3330 nM.
With `COCCS(=O)(=O)NC(=O)c1cc(-c2ccc(C(=O)N3CCC(N(C)C)CC3)cc2)c2c(OC(C)C)nn(C3CCCCC3)c2n1` [Compound 545, 1-cyclohexyl-4-{4-[4-(dimethylamino)piperidine-1-carbonyl]phenyl}-N-(2-methoxyethanesulfonyl)-3-[(propan-2-yl)oxy]-1H-pyrazolo[3,4-b]pyridine-6-carboxamide], the figures for the “% Activation” value on ΔF508-CFTR [1] and at ΔF508-CFTR [2] were 318.7% and 112.7%, respectively. Also, the EC50 is 1910 nM at ΔF508-CFTR [1] and 3330 nM at ΔF508-CFTR [2].
For `COC1CCN(C2CCN(c3cc(C(=O)NS(C)(=O)=O)nc4c3c(C3CCC3)nn4-c3ccc(F)cc3)CC2)CC1` [Compound 548, 3-cyclobutyl-1-(4-fluorophenyl)-N-(methanesulfonyl)-4-(4-methoxy[1,4'-bipiperidin]-1'-yl)-1H-pyrazolo[3,4-b]pyridine-6-carboxamide], at ΔF508-CFTR [1], the “% Activation” value is 556.9% and the EC50 came to 553 nM. Also, at ΔF508-CFTR [2], the “% Activation” value stood at 307.2% and the concentration giving a half-maximal response (EC50) amounted to 654 nM.
For `O=C(NS(=O)(=O)C1CC1)c1cc(N2CCC(N3CCN(C4CC4)CC3)CC2)c2c(C3CCC3)nn(-c3ccccc3)c2n1` [Compound 550, 3-cyclobutyl-N-(cyclopropanesulfonyl)-4-[4-(4-cyclopropylpiperazin-1-yl)piperidin-1-yl]-1-phenyl-1H-pyrazolo[3,4-b]pyridine-6-carboxamide] the same measures were 605.45%, 173 nM, 347% and 361 nM.
In the case of `CC(C)N1CCN(C2CCN(c3cc(C(=O)NS(=O)(=O)N(C)C)nc4c3c(C3CCC3)nn4C3CCCCC3)CC2)CC1` [Compound 553, 3-cyclobutyl-1-cyclohexyl-N-(dimethylsulfamoyl)-4-{4-[4-(propan-2-yl)piperazin-1-yl]piperidin-1-yl}-1H-pyrazolo[3,4-b]pyridine-6-carboxamide], on ΔF508-CFTR [1], the “% Activation” value is 494.3% and the EC50 is 233 nM. Besides, on ΔF508-CFTR [2], the “% Activation” value was 293% and the EC50 stood at 1730 nM.
Turning to `CCCN(C)S(=O)(=O)NC(=O)c1cc(N2CCC(N3CCN(C4CC4)CC3)CC2)c2c(C3CCC3)nn(-c3ccccc3)c2n1` [Compound 554, 3-cyclobutyl-4-[4-(4-cyclopropylpiperazin-1-yl)piperidin-1-yl]-N-[methyl(propyl)sulfamoyl]-1-phenyl-1H-pyrazolo[3,4-b]pyridine-6-carboxamide], at ΔF508-CFTR [1], the “% Activation” value is on record as 481% and the EC50 was 56.9 nM. In addition, at ΔF508-CFTR [2], the “% Activation” value came out at 269.45% and the EC50 stood at 108 nM.
Consider `CS(=O)(=O)NC(=O)c1cc(N2CCC(N3CCN(C4CC4)CC3)CC2)c2c(C3CCC3)nn(-c3ccccc3)c2n1` [Compound 556, 3-cyclobutyl-4-[4-(4-cyclopropylpiperazin-1-yl)piperidin-1-yl]-N-(methanesulfonyl)-1-phenyl-1H-pyrazolo[3,4-b]pyridine-6-carboxamide], for which the “% Activation” value at ΔF508-CFTR [1] is recorded as 595.8%; on ΔF508-CFTR [2], 386%. Besides, the EC50 on ΔF508-CFTR [1] worked out at 136 nM; on ΔF508-CFTR [2] it was 64.7 nM.
`CC1(S(=O)(=O)NC(=O)c2cc(N3CCC(N4CCN(C5CC5)CC4)CC3)c3c(C4CCC4)nn(-c4ccccc4)c3n2)CC1` [Compound 557, 3-cyclobutyl-4-[4-(4-cyclopropylpiperazin-1-yl)piperidin-1-yl]-N-(1-methylcyclopropane-1-sulfonyl)-1-phenyl-1H-pyrazolo[3,4-b]pyridine-6-carboxamide]: the “% Activation” value at ΔF508-CFTR [1] is 474.4%; on ΔF508-CFTR [2], 248.5%. Moreover, the EC50 came out at 116 nM on ΔF508-CFTR [1] and 252 nM at ΔF508-CFTR [2].
